From article PMC6155162, “Identification of mesothelioma-specific sialylated epitope recognized with monoclonal antibody SKM9-2 in a mucin-like membrane protein HEG1” (Scientific Reports, 2018)

B1: 2 kb: FLAG-tagged N-terminal deletion mutant hHEG1 (771-1481) (protein)
chain: MSALLILALVGAAVADYKDDDDKLAAANSSIDLSSGPPLPLPSVSQSHHLFSSILPSTRASVHLLKSTSDASTPWSSSPSPLPVSLTTSTSAPLSVSQTTLPQSSSTPVLPRARETPVTSFQTSTMTSFMTMLHSSQTADLKSQSTPHQEKVITESKSPSLVSLPTESTKAVTTNSPLPPSLTESSTEQTLPATSTNLAQMSPTFTTTILKTSQPLMTTPGTLSSTASLVTGPIAVQTTAGKQLSLTHPEILVPQISTEGGISTERNRVIVDATSGLIPLTSVPTSAKEMTTKLGVTAEYSPASRSLGTSPSPQTTVVSTAEDLAPKSATFAVQSSTQSPTTLSSSASVNSCAVNPCLHNGECVADNTSRGYHCRCPPSWQGDDCSVDVNECLSNPCPSTAMCNNTQGSFICKCPVGYQLEKGICNLVRTFVTEFKLKRTFLNTTVEKHSDLQEVENEITKTLNMCFSALPSYIRSTVHASRESNAVVISLQTTFSLASN
B2: 2.2 kb: FLAG-tagged N-terminal deletion mutant hHEG1 (712-1481) (protein)
chain: MSALLILALVGAAVADYKDDDDKLAAANSSIDLSSYDGEYAQPSTESPVLHTSNLPSYTPTINMPNTSVVLDTDAEFVSDSSSSSSSSSSSSSSSSSSSSGPPLPLPSVSQSHHLFSSILPSTRASVHLLKSTSDASTPWSSSPSPLPVSLTTSTSAPLSVSQTTLPQSSSTPVLPRARETPVTSFQTSTMTSFMTMLHSSQTADLKSQSTPHQEKVITESKSPSLVSLPTESTKAVTTNSPLPPSLTESSTEQTLPATSTNLAQMSPTFTTTILKTSQPLMTTPGTLSSTASLVTGPIAVQTTAGKQLSLTHPEILVPQISTEGGISTERNRVIVDATSGLIPLTSVPTSAKEMTTKLGVTAEYSPASRSLGTSPSPQTTVVSTAEDLAPKSATFAVQSSTQSPTTLSSSASVNSCAVNPCLHNGECVADNTSRGYHCRCPPSWQGDDCSVDVNECLSNPCPSTAMCNNTQGSFICKCPVGYQLEKGICNLVRTFVTEF
B3: 3 kb: FLAG-tagged N-terminal deletion mutant hHEG1 (285-1481) (protein)
chain: MSALLILALVGAAVADYKDDDDKLAAANSSIDLSWLHFYRTAASSPLLDLSSSSESTEKLNNSTGLQSSSVSQTKTMHVATVFTDGGPRTLRSLTVSLGPVSKTEGFPKDSRIATTSSSVLLSPSAVESRRNSRVTGNPGDEEFIEPSTENEFGLTSLRWQNDSPTFGEHQLASSSEVQNGSPMSQTETVSRSVAPMRGGEITAHWLLTNSTTSADVTGSSASYPEGVNASVLTQFSDSTVQSGGSHTALGDRSYSESSSTSSSESLNSSAPRGERSIAGISYGQVRGTAIEQRTSSDHTDHTYLSSTFTKGERALLSITDNSSSSDIVESSTSYIKISNSSHSEYSSFFHAQTERSNISSYDGEYAQPSTESPVLHTSNLPSYTPTINMPNTSVVLDTDAEFVSDSSSSSSSSSSSSSSSSSSSSGPPLPLPSVSQSHHLFSSILPSTRASVHLLKSTSDASTPWSSSPSPLPVSLTTSTSAPLSVSQTTLPQSSSTPV

Legend:
SKM9-2 [1] = assay: Western blotting using SKM9-2 of HEG1 truncated mutants and epitope-fused GPI-anchor proteins; type: binding; details: cell lysates of transfected HEK293T, SDS-PAGE under reducing conditions, 1 µg/mL SKM9-2
From the text: Figure 1 SKM9-2 binding to truncated mutants of HEG1. Schematics of full-length HEG1 (Full) and the truncated mutants are indicated on the left side and the results of western blotting using SKM9-2 are shown on the right side. Truncated amino acid position, which is based on a full-length variant of HEG1 containing exon 6, is shown as a number in the schematic of domain structure. The region of the SKM9-2 epitope is shown as a red square. […] SLURP GPI-anchor protein[18] was used as a fused GPI-anchor protein (violet square). The terminal sequences of the HEG1 peptide are shown in the western blot lane. The samples were resolved by 6% SDS-PAGE (a and b) or 4–15% SDS-PAGE (c) under reducing conditions and were detected by western blotting using SKM9-2. Cyt, cytoplasmic domain; EGFs, EGF related domains; Ser/Thr, serine/threonine rich region; SLURP, secreted lymphocyte antigen-6/urokinase-type plasminogen activator receptor-related peptide; SP, signal peptide; TM, transmembrane domain. Full-length blots are presented in Supplementary Fig. S7.
Figure 2 Epitope mapping of SKM9-2. Schematic of epitope peptides (left side) and western blots resolved by 4–15% SDS-PAGE (right side) are shown. The HEG1 peptide sequences are indicated in the western blot lane. Each epitope peptide was fused with a signal peptide (dashed line square) and a SLURP GPI-anchor protein (violet square). Full-length blots are presented in Supplementary Fig. S8.
Figure 3 Alanine scanning of SKM9-2 epitope. […] Cell lysates of transfected HEK293T (upper panel) or transfected ACC-MESO1 (lower panel) were resolved by 4–15% SDS-PAGE and analyzed by western blotting using SKM9-2. (b) S897A mutant of FLAG-tagged HEG1 in HEK293T was resolved by 4–15% SDS-PAGE and analyzed by western blotting using SKM9-2 (upper panel) or anti-FLAG mAb (lower panel). Native HEG1 in ACC-MESO4 and FLAG-tagged HEG1 without mutation in HEK293T were used as controls. Full-length blots are presented in Supplementary Fig. S9.
Sequences of tested HEG1 are shown in Supplementary Dataset. Full-length HEG1 cDNA was synthesized from total RNA purified with TRIzol reagent (Thermo Fisher Scientific) from ACC-MESO-4, using an oligo dT primer and SuperScript II RNase H reverse transcriptase (Thermo Fisher Scientific). cDNA encoding the HEG1 open reading frame was amplified by PCR using PrimeSTAR HS DNA Polymerase (Takara Bio Inc., Shiga, Japan). The HEG1 cDNA was cloned and inserted into the pcDNA3.1(−) mammalian expression vector (Thermo Fisher Scientific). For analyses of N-terminal truncation, we inserted mutants into pFLAG-CMV1 (Sigma-Aldrich Japan K.K., Tokyo, Japan). For analyses of C-terminal deletion lacking the transmembrane domain, we used mutants that were fused with a GPI-anchor protein, SLURP1-gpi[18], in pcDNA3.1(+) (Thermo Fisher Scientific) (Supplementary Dataset). Alanine substituted mutants were prepared using site directed mutagenesis. To produce a soluble epitope peptide, a modified HEG1 signal peptide and a C-terminal tag containing the FLAG tag plus a polyhistidine sequence were used in the mammalian expression vector pEF-BOS[39] (Supplementary Dataset). The plasmid constructs were transfected with Lipofectamine 3000 (Thermo Fisher Scientific). The HEG1 peptide-expressing 293 H clone was obtained by selection with geneticin (Thermo Fisher Scientific).
Monolayer cells were solubilized with 20 mM Tris buffer (pH 8.0) containing 1% SDS, 1 mM phenylmethylsulfonyl fluoride, 125 mU/mL Benzonase Nuclease (Merck Millipore Co., Tokyo, Japan) (25 µL/cm^2 culture surface area). The lysate (10 µL/lane) was resolved by SDS-PAGE under reducing conditions using 6% polyacrylamide gels or 4–15% precast gels (Bio-Rad Laboratories Inc., Hercules, CA, USA). […]

SKM9-2 [2] = assay: SPR analysis of binding between SKM9-2 and soluble His-tagged minimum epitope peptides (SKMepmin); details: for Kd: His-tagged SKMepmin secreted from transfected HEK293T immobilized on Ni2+-binding sensor chip NTA, analyte 5 µg/mL SKM9-2, running buffer 10 mM HEPES pH 8.1, 150 mM NaCl, 0.005% Tween-20, 50 µM EDTA, read-out: KD (M), dissociation constant; for dissociation rate between SKM9-2 and epitope peptide (in words) / association rate between SKM9-2 and epitope peptide (in words): analyte 5 µg/mL SKM9-2, change caused by the substitution; for affinity of SKM9-2 in contrast to SKMepmin3 (in words): analyte 5 µg/mL SKM9-2, ligand on sensor chip NTA
Experimental: Figure 5 SPR analysis of the binding kinetics between SKM9-2 and mutants of minimum epitope. A soluble His-tagged mutant of minimum epitope (SKMepmin) was secreted from transfected HEK293T and immobilized as a ligand on the Ni^2+-binding sensor chip NTA. The upper sensorgrams show the binding kinetics of analyte (5 µg/mL of SKM9-2) to SKMepmins. The control without any peptide is shown as “No peptide” and the negative control peptide cycle is shown as “Control peptide”. The glycan-digested SKMepmin3 that was treated with Neuraminidase A and O-Glycosidase was used as the negative control peptide. The dissociation constant in the lower bar graph was calculated using the manufacturer’s instructions. RU, response units; Signal sequence, the artificial signal sequence (MAPLLLLLLPLLLLPPAAP).
Figure 7 SPR analysis of bindings of lectin and SKM9-2 to glycosidase-treated SKMepmin3. Purified SKMepmin3 was incubated with α2-3 Neuraminidase S, Neuraminidase A, or Neuraminidase A + O-Glycosidase; and then was immobilized as a ligand on Ni^2+-binding sensor chip NTA. The analytes were used at a concentration of 5 µg/mL. (a) ABA, (b) Jacalin, (c) rACG, (d) SKM9-2. Glycosidase-digested sample was not tested in the experiment with rACG.
Cell lysate or SKMepmin3 was treated with α2-3 Neuraminidase S, α2-3, 6, 8, 9 Neuraminidase A, and O-Glycosidase (New England Biolabs Japan, Tokyo, Japan) in 50 mM sodium phosphate (pH 7.5) containing 1% Nonidet P-40, according to the manufacturer’s instructions. The cell lysate sample was resolved by 4–15% or 6% SDS-PAGE under reducing conditions and detected by western blotting using SKM9-2. The analysis of the SKMepmin3 sample was performed by SPR.
The binding of SKM9-2 or lectin to SKMepmin was measured by SPR analysis. SKMepmin was diluted with a running buffer (10 mM HEPES buffer (pH 8.1) containing 150 mM NaCl and 0.005% Tween-20), flowed on Ni^2+-binding sensor chip NTA (GE Healthcare), and affinity-bound through His-tag as a ligand on the sensor chip. Binding analysis of SKM9-2 was performed in a running buffer containing 50 µM EDTA. A non-treated flow cell was used as a reference cell. SKM9-2, anti-sialyl Lewis^X (CSLEX1, Becton, Dickinson and Company Japan, Tokyo, Japan), rACG (Wako Pure Chemical Industries), biotinylated ABA (J-Oil Mills, Inc., Tokyo, Japan), or biotinylated Jacalin (Vector Laboratories, Inc., Burlingame, CA, USA) (each 5 µg/mL) was injected as an analyte with the running buffer. As a regeneration buffer, 350 mM EDTA was used. The dissociation constant was calculated using the manufacturer’s instructions.

Molecule	recognition by SKM9-2 upon western blot analysis (SKM9-2 [1])	Kd (SKM9-2 [2]) [M]	dissociation rate between SKM9-2 and epitope peptide (in words) (SKM9-2 [2])	affinity of SKM9-2 in contrast to SKMepmin3 (in words) (SKM9-2 [2])	association rate between SKM9-2 and epitope peptide (in words) (SKM9-2 [2])
7.627: 887-EKVITESKSPSLVS-900 -SLURP GPI	not bound				
MAPLLLLLLPLLLLPPAAPGGSKAPALVSLPAGGDYKDDDDKHHHHHHHH [SKMepmin6]		4.2e-08	increased	decreased	
MAPLLLLLLPLLLLPPAAPGGSKAPSLVALPAGGDYKDDDDKHHHHHHHH [SKMepmin8]		3.25e-08	increased	decreased	
MAPLLLLLLPLLLLPPAAPGGSKAPTLVSLPAGGDYKDDDDKHHHHHHHH [SKMepmin7]		6.17e-08		further reduced	
MAPLLLLLLPLLLLPPAAPGGSKAPSLVSLPTGGDYKDDDDKHHHHHHHH [SKMepmin2]		6.22e-09			increased
MAPLLLLLLPLLLLPPAAPGGAKAPSLVSLPAGGDYKDDDDKHHHHHHHH [SKMepmin4]		1.15e-08		decreased	decreased
7.626: 887-EKVITESKSPSLVSLP-902 -SLURP GPI	weakly recognized				
MAPLLLLLLPLLLLPPAAPGGTKAPSLVSLPAGGDYKDDDDKHHHHHHHH [SKMepmin5]		2.9e-09	hardly influenced	restored	hardly influenced
7.62: 887-EKVITESKSPSLVSLPTEST-906 -SLURP GPI	clearly detected				
MAPLLLLLLPLLLLPPAAPGGSKSPSLVSLPTGGDYKDDDDKHHHHHHHH [SKMepmin1]		8.75e-09			
MAPLLLLLLPLLLLPPAAPGGSKAPSLVTLPAGGDYKDDDDKHHHHHHHH [SKMepmin9]		6.38e-09	increased	restored	
B1	recognized				
B2	recognized				
B3	recognized				
